Measured values from US20250136619A1, “HETEROBIFUNCTIONAL COMPOUNDS AND THEIR USE IN TREATING DISEASE” (HALDA THERAPEUTICS OPCO, INC., priority 2021, published 2025).

What was measured:
[1] = biological target: BTK (Homo sapiens (Human), UniProt Q06187); experiment: KdELECT assay for binding affinity to BTK
In short: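 Competition binding of test compound against bead-immobilized biotinylated ligand; kinase as T7 phage fusion or HEK-293-expressed DNA-tagged protein. 11-point 3-fold dilution, 0.9% DMSO final, 1 h room temperature with shaking. Bound kinase eluted with 0.5 μM non-biotinylated ligand and quantified by qPCR; Kd derived.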

[2] = biological target: mTOR (Homo sapiens (Human), UniProt P42345); experiment: KdELECT assay for binding affinity to mTOR
Description: Compounds were tested using a KdELECT assay. Kinase-tagged T7 phage strains were prepared in an E. coli host derived from the BL21 strain. E. coli were grown to log-phase and infected with T7 phage and incubated with shaking at 32° C. until lysis. The lysates were centrifuged and filtered to remove cell debris. The remaining kinases were produced in HEK-293 cells and subsequently tagged with DNA for qPCR detection. Streptavidin-coated magnetic beads were treated with biotinylated small molecule ligands for 30 minutes at room temperature to generate affinity resins for kinase assays. The liganded beads were blocked with excess biotin and washed with blocking buffer (SeaBlock (Pierce), 1% BSA, 0.05% Tween 20, 1 mM DTT) to remove unbound ligand and to reduce non-specific binding. Binding reactions were assembled by combining kinases, liganded affinity beads, and test compounds in 1×binding buffer (20% SeaBlock, 0.17×PBS, 0.05% Tween 20, 6 mM DTT). Test compounds were prepared as 111X stocks in 100% DMSO. Kd values were determined using an 11-point 3-fold compound dilution series with three DMSO control points. All compounds for Kd measurements are distributed by acoustic transfer (non-contact dispensing) in 100% DMSO. The compounds were then diluted directly into the assays such that the final concentration of DMSO was 0.9%. All reactions performed in polypropylene 384-well plate. Each was a final volume of 0.02 mL. The assay plates were incubated at room temperature with shaking for 1 hour and the affinity beads were washed with wash buffer (1×PBS, 0.05% Tween 20). The beads were then re-suspended in elution buffer (1×PBS, 0.05% Tween 20, 0.5 μM nonbiotinylated affinity ligand) and incubated at room temperature with shaking for 30 minutes. The kinase concentration in the eluates was measured by qPCR.

Chain of BTK (Q06187 whole entry, the tested form may be a part): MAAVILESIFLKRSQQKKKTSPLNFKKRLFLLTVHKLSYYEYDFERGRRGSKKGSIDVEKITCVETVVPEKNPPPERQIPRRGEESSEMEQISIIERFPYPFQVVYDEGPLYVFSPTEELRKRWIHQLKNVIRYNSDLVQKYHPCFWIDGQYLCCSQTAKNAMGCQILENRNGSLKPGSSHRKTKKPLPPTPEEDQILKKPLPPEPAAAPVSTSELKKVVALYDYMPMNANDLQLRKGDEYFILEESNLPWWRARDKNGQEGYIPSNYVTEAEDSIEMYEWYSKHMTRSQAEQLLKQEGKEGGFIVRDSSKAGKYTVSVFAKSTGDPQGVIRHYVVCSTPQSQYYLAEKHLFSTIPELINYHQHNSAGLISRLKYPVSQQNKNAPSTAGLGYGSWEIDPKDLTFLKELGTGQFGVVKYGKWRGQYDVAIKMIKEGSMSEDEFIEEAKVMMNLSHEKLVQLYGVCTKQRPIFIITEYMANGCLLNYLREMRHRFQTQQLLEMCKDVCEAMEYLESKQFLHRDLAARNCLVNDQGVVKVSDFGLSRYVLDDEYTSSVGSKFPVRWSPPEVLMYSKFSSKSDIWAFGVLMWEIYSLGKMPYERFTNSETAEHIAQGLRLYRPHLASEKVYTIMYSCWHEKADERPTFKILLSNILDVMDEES

Compound	Kd [1] [nM]	Kd [2] [nM]
C[C@@H]1COCCN1c1nc(N2CCOC[C@H]2C)c2ccc(-c3cccc(C(=O)NCCCCCCCCOc4ccc(C(=O)NC5C(C)(C)C(Oc6ccc(C#N)c(Cl)c6)C5(C)C)cc4)c3)nc2n1 (stereo partly drawn) [Compound I-8, 3-[2,4-bis[(3R)-3-methylmorpholin-4-yl]pyrido[2,3-d]pyrimidin-7-yl]-N-[8-[4-[[3-(3-chloro-4-cyano-phenoxy)-2,2,4,4-tetramethyl-cyclobutyl]carbamoyl]phenoxy]octyl]benzamide]	50 to 500	> 2500
C[C@@H]1COCCN1c1nc(N2CCOC[C@H]2C)c2ccc(-c3cccc(C(=O)NCCOCCOCCOCCOCCOCCOCCOCCOC/C=C/C(=O)N4CCC[C@@H](n5nc(-c6ccc(Oc7ccccc7)cc6)c6c(N)ncnc65)C4)c3)nc2n1 [Compound I-5, N-[2-[2-[2-[2-[2-[2-[2-[2-[(E)-4-[(3R)-3-[4-amino-3-(4-phenoxyphenyl)pyrazolo[3,4-d]pyrimidin-1-yl]-1-piperidyl]-4-oxo-but-2-enoxy]ethoxy]ethoxy]ethoxy]ethoxy]ethoxy]ethoxy]ethoxy]ethyl]-3-[2,4-bis[(3R)-3-methylmorpholin-4-yl]pyrido[2,3-d]pyrimidin-7-yl]benzamide]	< 50	50 to 500
Nc1nc2cc(-c3nn(CCCCC(=O)NCCCCCCCC/C=C/C(=O)N4CCC[C@@H](n5nc(-c6ccc(Oc7ccccc7)cc6)c6c(N)ncnc65)C4)c4ncnc(N)c34)ccc2o1 [Compound I-2, 5-[4-amino-3-(2-amino-1,3-benzoxazol-5-yl)pyrazolo[3,4-d]pyrimidin-1-yl]-N—[(E)-11-[(3R)-3-[4-amino-3-(4-phenoxyphenyl)pyrazolo[3,4-d]pyrimidin-1-yl]-1-piperidyl]-11-oxo-undec-9-enyl]pentanamide]	–	500 to 2500

More lines, now with the values ahead:

Kd [1] [nM]	Kd [2] [nM]	Compound
50 to 500	50 to 500	C[C@@H]1COCCN1c1nc(N2CCOC[C@H]2C)c2ccc(-c3cccc(C(=O)NCCOCCOCCOCCOC/C=C/C(=O)N4CCC[C@@H](n5nc(-c6ccc(Oc7ccccc7)cc6)c6c(N)ncnc65)C4)c3)nc2n1 [Compound I-3, N-[2-[2-[2-[2-[(E)-4-[(3R)-3-[4-amino-3-(4-phenoxyphenyl)pyrazolo[3,4-d]pyrimidin-1-yl]-1-piperidyl]-4-oxo-but-2-enoxy]ethoxy]ethoxy]ethoxy]ethyl]-3-[2,4-bis[(3R)-3-methylmorpholin-4-yl]pyrido[2,3-d]pyrimidin-7-yl]benzamide]
–	50 to 500	C[C@@H]1COCCN1c1nc(N2CCOC[C@H]2C)c2ccc(-c3cccc(C(=O)NCCOCCOCCOCCOCCOc4ccc(C(=O)NC5C(C)(C)C(Oc6ccc(C#N)c(Cl)c6)C5(C)C)cc4)c3)nc2n1 (some centres unmarked) [Compound I-10]
50 to 500	50 to 500	C[C@@H]1COCCN1c1nc(N2CCOC[C@H]2C)c2ccc(-c3cccc(C(=O)NCCCCCCCC/C=C/C(=O)N4CCC[C@@H](n5nc(-c6ccc(Oc7ccccc7)cc6)c6c(N)ncnc65)C4)c3)nc2n1 [Compound I-7, N—[(E)-11-[(3R)-3-[4-amino-3-(4-phenoxyphenyl)pyrazolo[3,4-d]pyrimidin-1-yl]-1-piperidyl]-11-oxo-undec-9-enyl]-3-[2,4-bis[(3R)-3-methylmorpholin-4-yl]pyrido[2,3-d]pyrimidin-7-yl]benzamide]
–	< 50	C[C@@H]1COCCN1c1nc(N2CCOC[C@H]2C)c2ccc(-c3cccc(C(=O)NCCOCCOCCOCCOCCOCCOCCOCCOCCOc4ccc(C(=O)N[C@H]5C(C)(C)[C@H](Oc6ccc(C#N)c(Cl)c6)C5(C)C)cc4)c3)nc2n1 [Compound I-9, N-[2-[2-[2-[2-[2-[2-[2-[2-[2-[4-[[3-(3-chloro-4-cyano-phenoxy)-2,2,4,4-tetramethyl-cyclobutyl]carbamoyl]phenoxy]ethoxy]ethoxy]ethoxy]ethoxy]ethoxy]ethoxy]ethoxy]ethoxy]ethyl]-3-[2-[(3R)-3-methylmorpholin-4-yl]-4-(3-methylmorpholin-4-yl)pyrido[2,3-d]pyrimidin-7-yl]benzamide]
